Assay results taken from US9045445B2, “Glycine transporter-1 inhibitors, methods of making them, and uses thereof” (Albany Molecular Research, Inc., priority 2010, dated 2015).
Where a name gives a salt, the structure may show the parent alone.

How the values were obtained:
[1] = biological target: T1, glycine transporter-1 (GlyT-1) (Homo sapiens, UniProt P48067); experiment: [14C]glycine uptake assay in JAR cells endogenously expressing GlyT-1 (scintillation proximity); assay type: cell-based; details: JAR cells, [14C]glycine 5 μM, 3 hour incubation; read-out: GlyT-1 IC50
T1 construct: JAR cells (ATCC#HTB-144), which endogenously express GlyT-1; host or cells: JAR human choriocarcinoma cells
T1 sequence (P48067 1-706): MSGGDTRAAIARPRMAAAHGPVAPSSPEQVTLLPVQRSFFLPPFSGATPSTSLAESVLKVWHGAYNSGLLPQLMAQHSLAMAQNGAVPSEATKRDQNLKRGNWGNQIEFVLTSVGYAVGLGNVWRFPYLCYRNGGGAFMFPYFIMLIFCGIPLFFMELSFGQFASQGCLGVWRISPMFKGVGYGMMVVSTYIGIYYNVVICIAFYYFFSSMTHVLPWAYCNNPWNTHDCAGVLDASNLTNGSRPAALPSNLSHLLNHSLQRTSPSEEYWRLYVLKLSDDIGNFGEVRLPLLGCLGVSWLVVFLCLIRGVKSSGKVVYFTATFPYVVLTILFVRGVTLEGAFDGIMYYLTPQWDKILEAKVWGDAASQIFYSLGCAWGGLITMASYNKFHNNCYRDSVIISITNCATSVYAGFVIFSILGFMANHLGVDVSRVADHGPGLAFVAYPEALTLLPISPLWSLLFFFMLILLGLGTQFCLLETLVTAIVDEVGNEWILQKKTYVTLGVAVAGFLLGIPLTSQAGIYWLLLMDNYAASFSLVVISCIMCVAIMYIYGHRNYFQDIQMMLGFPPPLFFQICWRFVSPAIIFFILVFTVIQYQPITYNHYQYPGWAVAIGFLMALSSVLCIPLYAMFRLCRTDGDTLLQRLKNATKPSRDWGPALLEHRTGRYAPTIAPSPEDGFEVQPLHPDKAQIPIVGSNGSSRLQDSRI
Outline: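 IC50 comes from a four-parameter fit of nine-point, duplicate curves measuring inhibition of 5 μM [14C]glycine uptake, read by scintillation proximity after 3 h at 37 °C. Cells are human JAR, which express GlyT-1 endogenously, given 10 min compound pre-treatment in pH 7.4 buffer with 5 mM alanine and 0.75% DMSO.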

[2] = biological target: T2, glycine transporter-2 (GlyT-2) (Homo sapiens, UniProt Q9Y345); experiment: [14C]glycine uptake assay in HEK-GlyT-2 transfected cells; assay type: cell-based; details: HEK-GlyT-2 cells
T2 construct: expressed in transfected cells
T2 sequence (Q9Y345 1-797): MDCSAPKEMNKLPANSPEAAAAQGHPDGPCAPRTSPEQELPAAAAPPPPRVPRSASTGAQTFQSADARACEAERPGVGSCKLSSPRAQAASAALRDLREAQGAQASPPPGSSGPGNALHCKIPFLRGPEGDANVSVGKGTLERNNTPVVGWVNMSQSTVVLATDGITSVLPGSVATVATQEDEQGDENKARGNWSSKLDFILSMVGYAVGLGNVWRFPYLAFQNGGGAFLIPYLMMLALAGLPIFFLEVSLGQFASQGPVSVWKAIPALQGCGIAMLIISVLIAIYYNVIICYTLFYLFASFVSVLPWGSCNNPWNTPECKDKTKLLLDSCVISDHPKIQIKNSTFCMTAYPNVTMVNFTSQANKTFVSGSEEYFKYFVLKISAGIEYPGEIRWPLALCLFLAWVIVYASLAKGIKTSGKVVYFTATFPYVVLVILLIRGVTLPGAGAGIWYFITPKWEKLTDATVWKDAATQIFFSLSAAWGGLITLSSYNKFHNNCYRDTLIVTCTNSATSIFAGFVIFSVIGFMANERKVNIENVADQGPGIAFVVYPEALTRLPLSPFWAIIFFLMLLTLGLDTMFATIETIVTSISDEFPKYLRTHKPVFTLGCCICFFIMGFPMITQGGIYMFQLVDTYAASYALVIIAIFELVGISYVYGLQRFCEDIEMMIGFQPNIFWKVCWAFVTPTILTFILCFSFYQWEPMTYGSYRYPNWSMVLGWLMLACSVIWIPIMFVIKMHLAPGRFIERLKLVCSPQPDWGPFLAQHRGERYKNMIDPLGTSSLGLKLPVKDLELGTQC

Compound | IC50 [1] [nM] | IC50 [2] [nM]
2-Chloro-N-((4,4-difluoro- 1-(3-(propylsulfonyl)-3,8- diazabicyclo[3.2.1]octan- 8-yl)cyclohexyl)methyl)- 4-(trifluoromethyl) benzamide Hydrochloride [compound 261] | 311 | > 75000
4-Chloro-N-((1-(4- (propylsulfonyl)piperazin- 1-yl)cycloheptyl)methyl) benzamide Hydrochloride [compound 58] | 265 | 53000
CCCS(=O)(=O)N1CCN(C2(CNC(=O)c3ccc(OC(F)(F)F)cc3)CCCCC2)CC1 [compound 6, N-((1-(4-(Propylsulfonyl)piperazin-1-yl)cyclohexyl)methyl)-4-(trifluoromethoxy) benzamide Hydrochloride] | 118 | 28600
CCCS(=O)(=O)N1CCN(C2(CNC(=O)c3ccc(C(F)(F)F)cc3)CCCCC2)CC1 [compound 7, N-((1-(4-(Propyl-sulfonyl)piperazin-1-yl)cyclohexyl)methyl)-4-(trifluoromethyl) benzamide Hydrochloride] | 126 | > 30000
CCCS(=O)(=O)N1CCN(C2(CNC(=O)c3ccc(Br)cc3)CCCCC2)CC1 [compound 11, 4-Bromo-N-((1-(4-(propylsulfonyl)piperazin-1-yl)cyclohexyl)methyl) benzamide Hydrochloride] | 222 | > 75000
CCCS(=O)(=O)N1CCN(C2(CNC(=O)c3ccccc3)CCCCC2)CC1 [compound 24, N-((1-(4-(Propylsulfonyl)piperazin-1-yl)cyclohexyl)methyl) benzamide Hydrochloride] |  | > 75000
CCCS(=O)(=O)N1CCN(C2(CNC(=O)c3ccc(Cl)cc3Cl)CCOCC2)CC1 [compound 118, 2,4-Dichloro-N-((4-(4-(propylsulfonyl)piperazin-1-yl)tetrahydro-2H-pyran-4-yl)methyl)benzamide Hydrochloride] |  | > 75000
O=C(NCC1(N2CCN(S(=O)(=O)N3CCC(F)(F)C3)CC2)CCC(F)(F)CC1)c1ccc(C(F)(F)F)cc1Cl [compound 272, 2-Chloro-N-((1-(4-(3,3-difluoropyrrolidin-1-ylsulfonyl)piperazin-1-yl)-4,4-difluorocyclohexyl)methyl)-4-(trifluoromethyl) benzamide Hydrochloride] | 1100 | 
CN(C)S(=O)(=O)N1CCN(C2(CNC(=O)c3ccc(C(F)(F)F)cc3Cl)CCC(F)(F)CC2)CC1 [compound 273, 2-Chloro-N-((1-(4-(N,N-dimethylsulfamoyl)piperazin-1-yl)-4,4-difluorocyclohexyl)methyl)-4-(trifluoromethyl)benzamide Hydrochloride] | 350 | 
Cn1ccc(S(=O)(=O)N2CCN(C3(CNC(=O)c4ccc(C(F)(F)F)cc4Cl)CCC(F)(F)CC3)CC2)n1 [compound 283, 2-Chloro-N-((4,4-difluoro-1-(4-(1-methyl-1H-pyrazol-3-ylsulfonyl)piperazin-1-yl)cyclohexyl)methyl)-4-(trifluoromethyl)benzamide Hydrochloride] | 2410 | 

Results, then the compound that gave them:

IC50 [1] [nM] | IC50 [2] [nM] | Compound
1 | > 75000 | CC(NC(=O)c1ccc(C(F)(F)F)cc1Cl)C1(N2CCN(S(=O)(=O)c3cn(C)nn3)CC2)CCC(F)(F)CC1 (racemic) [compound 222, (±)-2-Chloro-N-(1-(4,4-difluoro-1-(4-(1-methyl-1H-1,2,3-triazol-4-ylsulfonyl)piperazin-1-yl)cyclohexyl)ethyl)-4-(trifluoromethyl) benzamide Hydrochloride]
7 | > 75000 | CC1CN(C2(CNC(=O)c3ccc(C(F)(F)F)cc3Cl)CCC(F)(F)CC2)CCN1S(=O)(=O)c1cn(C)nn1 (racemic) [compound 227, (±)-2-Chloro-N-((4,4-difluoro-1-(3-methyl-4-(1-methyl-1H-1,2,3-triazol-4-ylsulfonyl)piperazin-1-yl)cyclohexyl)methyl)-4-(trifluoromethyl)benzamide Hydrochloride]
22 | 22700 | CCCS(=O)(=O)N1CCN(C2(CNC(=O)c3ccc(Cl)cc3Cl)CCCCC2)CC1 [compound 2, 2,4-Dichloro-N-((1-(4-(propylsulfonyl)piperazin-1-yl)cyclohexyl)methyl)benzamide Hydrochloride]
22 | 39100 | CCCS(=O)(=O)N1CCN(C2(CNC(=O)c3ccccc3OC(F)(F)F)CCCCC2)CC1 [compound 4, N-((1-(4-(Propylsulfonyl)piperazin-1-yl)cyclohexyl)methyl)-2-(trifluoromethoxy) benzamide Hydrochloride]
43 | ≥ 75000 | CCCS(=O)(=O)N1CCN(C2(CNC(=O)c3c(C(F)(F)F)ccc(Cl)c3F)CCCCC2)CC1 [compound 5, 3-Chloro-2-fluoro-N-((1-(4-(propylsulfonyl)piperazin-1-yl)cyclohexyl)methyl)-6-(trifluoromethyl)benzamide Hydrochloride]
36 | > 75000 | CCCS(=O)(=O)N1CCN(C2(CNC(=O)c3ccccc3Cl)CCCCC2)CC1 [compound 8, 2-Chloro-N-((1-(4-(propylsulfonyl)piperazin-1-yl)cyclohexyl)methyl) benzamide Hydrochloride]
22 | > 75000 | CCCS(=O)(=O)N1CCN(C2(CNC(=O)c3ccc(Cl)cc3C)CCCCC2)CC1 [compound 9, 4-Chloro-2-methyl-N-((1-(4-(propylsulfonyl)piperazin-1-yl)cyclohexyl)methyl) benzamide Hydrochloride]
7 |  | Cn1cc(S(=O)(=O)N2CCN(C3(CNC(=O)c4ccc(C(F)(F)F)cc4C(F)(F)F)CCCC3)CC2)nn1 [compound 275, N-((1-(4-(1-Methyl-1H-1,2,3-triazol-4-ylsulfonyl)piperazin-1-yl)cyclopentyl)methyl)-2,4-bis(trifluoromethyl) benzamide Hydrochloride]
7 |  | Cn1cc(S(=O)(=O)N2CCN(C3(CNC(=O)c4ccc(C(F)(F)F)cc4C(F)(F)F)CCOCC3)CC2)nn1 [compound 276, N-((4-(4-(1-Methyl-1H-1,2,3-triazol-4-ylsulfonyl)piperazin-1-yl)tetrahydro-2H-pyran-4-yl)methyl)-2,4-bis(trifluoromethyl) benzamide Hydrochloride]
61 |  | CC(=O)CS(=O)(=O)N1CCN(C2(CNC(=O)c3ccc(C(F)(F)F)cc3Cl)CCC(F)(F)CC2)CC1 [compound 280, 2-Chloro-N-((4,4-difluoro-1-(4-(2-oxopropylsulfonyl)piper-azin-1-yl)cyclohexyl)methyl)-4-(trifluoromethyl) benzamide Hydrochloride]
29 |  | CC(NC(=O)c1ccc(C(F)(F)F)cc1Cl)C1(N2CCN(S(=O)(=O)c3cn(C)nn3)CC2)CCCC1 (stereo not shown) [compound 282, 2-Chloro-N-(1-(1-(4-(1-methyl-1H-1,2,3-triazol-4-ylsulfonyl)piperazin-1-yl)cyclopentyl)ethyl)-4-(trifluoromethyl)benzamide Hydrochloride]
3 |  | N-((4,4-Difluoro-1-(1-(1- methyl-1H-1,2,3-triazol-4- ylsulfonyl)piperidin-4- yl)cyclohexyl)methyl)-2,4- bis(trifluoromethyl) benzamide [compound 274]
